{"source": "patent US4156737A", "about": "“P-Aminomethyl-benzene-sulfonamide derivatives, process for their preparation and applications thereof” (priority 1977, dated 1979)", "key": {"skin of rats": {"tested_on": "skin of rats", "assay": "Topical application on the skin of rats (tolerance)", "format": "in vivo", "excerpt": "(§1) High dosages of said products, suspended in suitable excipients, could be applied without any evidence of toxic symptons.\n(§2) Application of said products was effected on the skin of animals both after depilation and after depilation and abrasion, so as to obtain continuous skin lesions."}, "mice": {"tested_on": "mice", "assay": "LD50 in mice, intraperitoneal route (acute toxicity)", "format": "in vivo", "conditions": "for toxicity: general statement introducing LD50"}, "[1]": {"assay": "LD50 in mice, intraperitoneal route (acute toxicity)", "format": "in vivo", "conditions": "mouse, in vivo, ip; mice, intraperitoneal route"}, "skin of rabbits": {"tested_on": "skin of rabbits", "assay": "Topical application on the skin of rabbits (tolerance)", "format": "in vivo", "excerpt": "as §1, §2"}, "Staphylococcus": {"tested_on": "Staphylococcus", "assay": "Anti-bacterial activity, agar dilutions on Mueller-Hinton medium, Staphylococcus", "format": "cell-based", "procedure": "(§3) Various tests were used to determine the anti-bacterial activity of the products of Examples 1 and 2 with respect to p-aminomethyl-benzene-sulfonamide. Said tests were effected according to the agar dilutions on Mueller-Hinton medium. The inoculum is prepared by means of an automatic Multipoint Inoculation apparatus, with a 24 hrs broth culture diluted to 1/10.\n(§4) The test materials are suspended in a Twin solution.\n(§5) The following germ strains were used: E. coli 130; E. coli 3671; E. coli K 12; E. coli 334; Pseudomonas 66/5; Pseudomonas 630412; Pseudomonas Paffoni; Staphylococcus 209 P; Staphylococcus 153; Pseudomonas vulgaris 66/24; Proteus marg. 66/68; Proteus mirab. 564; Proteus mirab. 250; Serrata marcescens 67/14; Salmonella 29582; Salmonella gr. B; Providencia 70/13."}, "[2]": {"tested_on": "germ strains (E. coli, Pseudomonas, Staphylococcus, Proteus, Serrata marcescens, Salmonella, Providencia)", "assay": "Anti-bacterial activity, agar dilutions on Mueller-Hinton medium, all germ strains", "format": "cell-based", "conditions": "versus p-aminomethyl-benzene-sulfonamide", "procedure": "as §3, §4, §5"}, "[3]": {"tested_on": "experimentally induced burns in male Sprague-Dawley rats", "assay": "Protective action on experimentally induced burns", "format": "in vivo", "conditions": "for percent death rate of the burnt animals: after 48 hrs, versus reference animals or equivalent dosages of p-aminomethyl-benzene-sulfonamide; for protection compared with p-aminomethyl-benzene-sulfonamide: local; for protection compared with p-aminomethyl-benzene-sulfonamide / protective action against experimentally induced burns: 500 mg/kg; for protective action against experimentally induced burns: prior local administration", "procedure": "The seriousness of the lesion thus induced is evaluated by means of the intravenous injection of Evans Blue, a vital dye."}, "[4]": {"tested_on": "holes punctured through the ears of New Zealand rabbits", "assay": "Action on cicatrization of holes punctured through the ears of rabbits", "format": "in vivo", "conditions": "10% suspension applied locally around ear hole; versus reference animals or p-aminomethyl-benzene-sulfonamide", "procedure": "To evaluate the healing action of the products of Examples 1 and 2 holes of equal diameter were punctured through the ears of New Zealand rabbits, after which the time required for cicatrization of said holes to occur was determined in untreated reference rabbits, in rabbits treated locally around the hole punctured through the ear with a 10% p-aminomethyl-benzene-sulfonamide suspension or with a suspension of identical concentration of the products of Examples 1 and 2."}, "E. coli": {"tested_on": "E. coli", "assay": "Anti-bacterial activity, agar dilutions on Mueller-Hinton medium, E. coli", "format": "cell-based", "procedure": "as §3, §4, §5"}, "treated animals": {"tested_on": "treated animals", "assay": "Chronic toxicity, laboratory, organ and histological examinations of the treated animals", "format": "in vivo, rats and rabbits", "excerpt": "In particular, no modification was found on examination of the weight increase, of the differential leucocyte count, of azotemia, of the transaminases and of urinary excretion.\nSimilarly, no modification was detected on anatomopathologic and physiological examinations conducted at the level of the main organs of the treated animals."}, "Pseudomonas": {"tested_on": "Pseudomonas", "assay": "Anti-bacterial activity, agar dilutions on Mueller-Hinton medium, Pseudomonas", "format": "cell-based", "procedure": "as §3, §4, §5"}, "[5]": {"assay": "Hygroscopicity and stability of the isolated powder", "format": "physicochemical", "conditions": "white powder", "procedure": "The material is allowed to rest at a temperature of 5° C. for 24 hours, after which the resulting product is filtered off."}}, "note": "Counter-ions that a name gives are not always drawn.", "data": [{"compound": "NCc1ccc(S(N)(=O)=O)cc1", "note": "[Example 1, p-aminomethyl-benzene-sulfonamide, silver salt]", "values": [{"measurement": "tolerance and apparent toxicity after topical application", "setting": "skin of rats; rat, in vivo", "result": "equally well tolerated and free from any apparent toxicity"}, {"measurement": "toxicity", "setting": "mice", "result": "very low toxicity"}, {"measurement": "LD50", "setting": "[1]", "result": 55, "unit": "mg/kg"}, {"measurement": "tolerance and apparent toxicity after topical application", "setting": "skin of rabbits; rabbit, in vivo", "result": "equally well tolerated and free from any apparent toxicity"}, {"measurement": "susceptibility of species", "setting": "Staphylococcus", "result": "particularly susceptible"}, {"measurement": "inhibiting action on the growth of the germ colonies", "setting": "[2]", "result": "higher inhibiting action at lower concentrations than p-aminomethyl-benzene-sulfonamide"}, {"measurement": "percent death rate of the burnt animals", "setting": "[3]", "result": "lower"}, {"measurement": "protection compared with p-aminomethyl-benzene-sulfonamide", "setting": "[3]", "result": "superior to that exerted by p-aminomethyl-benzene-sulfonamide"}, {"measurement": "protective action against experimentally induced burns", "setting": "[3]", "result": "exerts a protective action against experimentally induced burns, by inhibiting or decreasing the intensity and the seriousness of the local lesions"}, {"measurement": "tissue regeneration and cicatrization", "setting": "[4]", "result": "much more rapid than in the reference animals or in the animals treated with p-aminomethyl-benzene-sulfonamide"}, {"measurement": "susceptibility of species", "setting": "E. coli", "result": "particularly susceptible"}, {"measurement": "histological examination of skin samples", "setting": "treated animals; in vivo", "result": "failed to disclose any modification of inflammatory or degenerative type"}, {"measurement": "susceptibility of species", "setting": "Pseudomonas", "result": "particularly susceptible"}]}, {"compound": "p-aminomethyl-benzene-sulfonamide, zinc salt [Example 2]", "values": [{"measurement": "hygroscopicity and stability", "setting": "[5]", "result": "non-hygroscopic stable"}, {"measurement": "tolerance and apparent toxicity after topical application", "setting": "skin of rats; skin of rats, topical", "result": "equally well tolerated and free from any apparent toxicity"}, {"measurement": "toxicity", "setting": "mice", "result": "very low toxicity"}, {"measurement": "LD50", "setting": "mice; mice, intraperitoneal route", "result": 80, "unit": "mg/kg"}, {"measurement": "tolerance and apparent toxicity after topical application", "setting": "skin of rabbits; skin of rabbits, topical", "result": "equally well tolerated and free from any apparent toxicity"}, {"measurement": "susceptibility of species", "setting": "Staphylococcus", "result": "particularly susceptible"}, {"measurement": "inhibiting action on the growth of the germ colonies", "setting": "[2]", "result": "higher inhibiting action at lower concentrations than p-aminomethyl-benzene-sulfonamide"}, {"measurement": "percent death rate of the burnt animals", "setting": "[3]", "result": "lower"}, {"measurement": "protection compared with p-aminomethyl-benzene-sulfonamide", "setting": "[3]", "result": "superior to that exerted by p-aminomethyl-benzene-sulfonamide"}, {"measurement": "protective action against experimentally induced burns", "setting": "[3]", "result": "exerts a protective action against experimentally induced burns, by inhibiting or decreasing the intensity and the seriousness of the local lesions"}, {"measurement": "tissue regeneration and cicatrization", "setting": "[4]", "result": "much more rapid than in the reference animals or in the animals treated with p-aminomethyl-benzene-sulfonamide"}, {"measurement": "susceptibility of species", "setting": "E. coli", "result": "particularly susceptible"}, {"measurement": "histological examination of skin samples", "setting": "treated animals; chronic topical treatment, inflammatory or degenerative modification", "result": "failed to disclose any modification of inflammatory or degenerative type"}, {"measurement": "susceptibility of species", "setting": "Pseudomonas", "result": "particularly susceptible"}]}]}
